Measured values: ChEMBL document CHEMBL3352153, “Diastereoselective synthesis of potent antimalarial cis-β-lactam agents through a [2 + 2] cycloaddition of chiral imines with a chiral ketene” (Eur J Med Chem, 2014)

System: Plasmodium falciparum
Experiment: Antimalarial activity against chloroquine-resistant Plasmodium falciparum K14 infected in human red blood cells after 48 hrs by [3H]hypoxanthine incorporation assay
Assay type: functional, organism-based

SMILES | IC50 [µM]
COc1ccc(N2C(=O)[C@H](O[C@@H]3C[C@H](C)CC[C@H]3C(C)C)[C@@H]2c2ccc(Cl)cc2)cc1 | > 50
COc1ccc(N2C(=O)[C@@H](O[C@@H]3C[C@H](C)CC[C@H]3C(C)C)[C@H]2c2ccc(Cl)cc2)cc1 | > 50
C[C@@H](c1ccccc1)N1C(=O)[C@H](Oc2ccccc2)[C@@H]1c1ccc(Cl)cc1 | 42
C[C@@H](c1ccccc1)N1C(=O)[C@@H](Oc2ccccc2)[C@H]1c1ccc(Cl)cc1 | 42
CC(C)[C@@H]1CC[C@@H](C)C[C@H]1O[C@@H]1C(=O)N([C@@H](C)c2ccccc2)[C@@H]1c1ccc(Cl)cc1 | 33
CC(C)[C@@H]1CC[C@@H](C)C[C@H]1O[C@@H]1C(=O)N([C@@H](C)c2ccccc2)[C@@H]1c1ccccc1Cl | 36
CC(C)[C@@H]1CC[C@@H](C)C[C@H]1O[C@@H]1C(=O)N([C@@H](C)c2ccccc2)[C@@H]1/C=C/c1ccccc1 | > 50
COc1ccc([C@@H]2[C@H](O[C@@H]3C[C@H](C)CC[C@H]3C(C)C)C(=O)N2[C@@H](C)c2ccccc2)cc1 | 13
COc1cccc([C@@H]2[C@H](O[C@@H]3C[C@H](C)CC[C@H]3C(C)C)C(=O)N2[C@@H](C)c2ccccc2)c1 | 8
COc1ccc([C@@H]2[C@H](O[C@@H]3C[C@H](C)CC[C@H]3C(C)C)C(=O)N2[C@@H](C)c2ccccc2)cc1OC | 8
Cc1ccc([C@@H]2[C@H](O[C@@H]3C[C@H](C)CC[C@H]3C(C)C)C(=O)N2[C@@H](C)c2ccccc2)cc1 | 35
Cc1cccc([C@@H]2[C@H](O[C@@H]3C[C@H](C)CC[C@H]3C(C)C)C(=O)N2[C@@H](C)c2ccccc2)c1 | 42
CC(C)[C@@H]1CC[C@@H](C)C[C@H]1O[C@@H]1C(=O)N([C@@H](C)c2ccccc2)[C@@H]1c1ccc(F)cc1 | 19
CC(C)[C@@H]1CC[C@@H](C)C[C@H]1O[C@@H]1C(=O)N([C@@H](C)c2ccccc2)[C@@H]1c1ccc(Br)cc1 | 11
CC(C)[C@@H]1CC[C@@H](C)C[C@H]1O[C@@H]1C(=O)N([C@@H](C)c2ccccc2)[C@@H]1c1ccc([N+](=O)[O-])cc1 | 27
CC(C)[C@@H]1CC[C@@H](C)C[C@H]1O[C@@H]1C(=O)N([C@@H](C)c2ccccc2)[C@@H]1c1ccccc1[N+](=O)[O-] | 21
CC(C)[C@@H]1CC[C@@H](C)C[C@H]1O[C@@H]1C(=O)N([C@@H](C)c2ccccc2)[C@@H]1c1ccc2ccccc2c1 | 10
